Test results from the supplement of paper PMC10307832.

Legend:
Assay in all cases: relative viability (nuclei count vs DMSO), 5 days (fraction); higher = more cells survive
[1] = test system: 201T
Procedure, shortened: (§1)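 Cells from lung cancer lines were seeded into 1536-well plates and, one day later, dosed by pin tool. Treatments were either a single drug or a fixed dose of an anchor drug with five library-drug doses (not always all listed) in √10 steps. After 5 days, nuclei were stained in a one-step fixation (final 0.05% Triton X-100, 1% formaldehyde, 1 ug/ml Hoechst) and counted on 4× images, and relative viability is the treated-to-vehicle nuclei ratio, as the median of duplicate plates.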

[2] = test system: COR-L23
Procedure, shortened: as §1

[3] = test system: EPLC-272H
Procedure, shortened: as §1

[4] = test system: H3255
Procedure, shortened: as §1

[5] = test system: LOU-NH91
Procedure, shortened: as §1

[6] = test system: NCI-H1563
Procedure, shortened: as §1

[7] = test system: NCI-H1650
Procedure, shortened: as §1

[8] = test system: NCI-H1734
Procedure, shortened: as §1

[9] = test system: NCI-H1793
Procedure, shortened: as §1

[10] = test system: NCI-H1993
Procedure, shortened: as §1

[11] = test system: NCI-H2023
Procedure, shortened: as §1

[12] = test system: NCI-H2085
Procedure, shortened: as §1

[13] = test system: NCI-H2170
Procedure, shortened: as §1

[14] = test system: NCI-H2347
Procedure, shortened: as §1

[15] = test system: NCI-H2405
Procedure, shortened: as §1

[16] = test system: NCI-H3122
Procedure, shortened: as §1

[17] = test system: NCI-H441
Procedure, shortened: as §1

[18] = test system: NCI-H520
Procedure, shortened: as §1

[19] = test system: NCI-H647
Procedure, shortened: as §1

[20] = test system: PC-14
Procedure, shortened: as §1

[21] = test system: RERF-LC-KJ
Procedure, shortened: as §1

[22] = test system: SW 900
Procedure, shortened: as §1

C=C1C(=O)O[C@@H](CCCCCCCC)[C@@H]1C(=O)O [C-75] + COc1cc2c(Oc3ccc(NC(=O)C4(C(=O)Nc5ccc(F)cc5)CC4)cc3F)ccnc2cc1OCCCN1CCOCC1 [Foretinib] (partner 0.25 µM)
relative viability ([1]; first compound 0.08 µM): 1.08
relative viability ([1]; first compound 0.253 µM): 1.24
relative viability ([1]; first compound 0.8 µM): 1.08
relative viability ([1]; first compound 2.53 µM): 0.64
relative viability ([1]; first compound 8 µM): 1.03
relative viability ([2]; first compound 0.08 µM): 0.903
relative viability ([2]; first compound 0.253 µM): 1
relative viability ([2]; first compound 0.8 µM): 0.856
relative viability ([2]; first compound 2.53 µM): 0.9
relative viability ([2]; first compound 8 µM): 0.965
relative viability ([3]; first compound 0.08 µM): 0.686
relative viability ([3]; first compound 0.253 µM): 0.936
relative viability ([3]; first compound 0.8 µM): 0.554
relative viability ([3]; first compound 2.53 µM): 0.429
relative viability ([3]; first compound 8 µM): 0.386
relative viability ([4]; first compound 0.08 µM): 0.837
relative viability ([4]; first compound 0.253 µM): 0.927
relative viability ([4]; first compound 0.8 µM): 0.73
relative viability ([4]; first compound 2.53 µM): 0.736
relative viability ([4]; first compound 8 µM): 0.983
relative viability ([5]; first compound 0.08 µM): 0.938
relative viability ([5]; first compound 0.253 µM): 0.873
relative viability ([5]; first compound 0.8 µM): 0.903
relative viability ([5]; first compound 2.53 µM): 0.914
relative viability ([5]; first compound 8 µM): 0.948
relative viability ([6]; first compound 0.08 µM): 0.953
relative viability ([6]; first compound 0.253 µM): 0.955
relative viability ([6]; first compound 0.8 µM): 0.883
relative viability ([6]; first compound 2.53 µM): 0.844
relative viability ([6]; first compound 8 µM): 0.877
relative viability ([7]; first compound 0.08 µM): 1.2
relative viability ([7]; first compound 0.253 µM): 1.41
relative viability ([7]; first compound 2.53 µM): 1.11
relative viability ([7]; first compound 8 µM): 1.04
relative viability ([8]; first compound 0.08 µM): 0.942
relative viability ([8]; first compound 0.253 µM): 0.819
relative viability ([8]; first compound 0.8 µM): 0.78
relative viability ([8]; first compound 2.53 µM): 0.476
relative viability ([8]; first compound 8 µM): 0.748
relative viability ([9]; first compound 0.08 µM): 0.572
relative viability ([9]; first compound 0.253 µM): 0.721
relative viability ([9]; first compound 0.8 µM): 0.569
relative viability ([9]; first compound 2.53 µM): 0.46
relative viability ([9]; first compound 8 µM): 0.658
relative viability ([10]; first compound 0.08 µM): 0.898
relative viability ([10]; first compound 0.253 µM): 0.782
relative viability ([10]; first compound 0.8 µM): 0.851
relative viability ([10]; first compound 2.53 µM): 0.786
relative viability ([10]; first compound 8 µM): 0.88
relative viability ([11]; first compound 0.08 µM): 0.798
relative viability ([11]; first compound 0.253 µM): 1.05
relative viability ([11]; first compound 0.8 µM): 0.714
relative viability ([11]; first compound 2.53 µM): 0.943
relative viability ([11]; first compound 8 µM): 1.07
relative viability ([12]; first compound 0.08 µM): 0.842
relative viability ([12]; first compound 0.253 µM): 0.879
relative viability ([12]; first compound 0.8 µM): 0.921
relative viability ([12]; first compound 2.53 µM): 0.782
relative viability ([12]; first compound 8 µM): 1.14
relative viability ([13]; first compound 0.08 µM): 1.06
relative viability ([13]; first compound 0.253 µM): 1.01
relative viability ([13]; first compound 0.8 µM): 0.987
relative viability ([13]; first compound 2.53 µM): 0.591
relative viability ([13]; first compound 8 µM): 0.986
relative viability ([14]; first compound 0.08 µM): 0.83
relative viability ([14]; first compound 0.253 µM): 1.21
relative viability ([14]; first compound 2.53 µM): 0.876
relative viability ([14]; first compound 8 µM): 0.472
relative viability ([15]; first compound 0.08 µM): 1.05
relative viability ([15]; first compound 0.253 µM): 1
relative viability ([15]; first compound 0.8 µM): 1.05
relative viability ([15]; first compound 2.53 µM): 0.882
relative viability ([15]; first compound 8 µM): 1.05
relative viability ([16]; first compound 0.08 µM): 0.966
relative viability ([16]; first compound 0.253 µM): 0.848
relative viability ([16]; first compound 0.8 µM): 0.936
relative viability ([16]; first compound 2.53 µM): 0.952
relative viability ([16]; first compound 8 µM): 0.983
relative viability ([17]; first compound 0.08 µM): 1.01
relative viability ([17]; first compound 0.253 µM): 0.958
relative viability ([17]; first compound 0.8 µM): 1.03
relative viability ([17]; first compound 2.53 µM): 0.789
relative viability ([17]; first compound 8 µM): 1.15
relative viability ([18]; first compound 0.08 µM): 0.728
relative viability ([18]; first compound 0.253 µM): 0.95
relative viability ([18]; first compound 0.8 µM): 0.831
relative viability ([18]; first compound 2.53 µM): 0.909
relative viability ([18]; first compound 8 µM): 0.794
relative viability ([19]; first compound 0.08 µM): 1.23
relative viability ([19]; first compound 0.253 µM): 1.12
relative viability ([19]; first compound 0.8 µM): 0.998
relative viability ([19]; first compound 2.53 µM): 1.18
relative viability ([19]; first compound 8 µM): 0.97
relative viability ([20]; first compound 0.08 µM): 0.949
relative viability ([20]; first compound 0.253 µM): 0.911
relative viability ([20]; first compound 0.8 µM): 0.956
relative viability ([20]; first compound 2.53 µM): 0.74
relative viability ([20]; first compound 8 µM): 0.891
relative viability ([21]; first compound 0.08 µM): 0.94
relative viability ([21]; first compound 0.253 µM): 0.973
relative viability ([21]; first compound 0.8 µM): 0.909
relative viability ([21]; first compound 2.53 µM): 0.797
relative viability ([21]; first compound 8 µM): 0.961
relative viability ([22]; first compound 0.08 µM): 0.913
relative viability ([22]; first compound 0.253 µM): 1.07
relative viability ([22]; first compound 0.8 µM): 0.842
relative viability ([22]; first compound 2.53 µM): 0.945
relative viability ([22]; first compound 8 µM): 0.804
